Measurements as given in the supplement of paper PMC10307832.

Tests used:
Experiment in all cases: relative viability (nuclei count vs DMSO), 5 days (fraction); higher = more cells survive
RO-3306 + Bortezomib = compound: C1=CC2=C(C=CC(=C2)C=C3C(=O)NC(=NCC4=CC=CS4)S3)N=C1 [RO-3306] + CC(C)C[C@H](NC(=O)[C@H](Cc1ccccc1)NC(=O)c1cnccn1)B(O)O [Bortezomib] (partner 0.002 µM)
Procedure, shortened: (§1)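 After 5 days of treatment, lung cancer cells in 1536-well plates were fixed and stained in a single step (final 0.05% Triton X-100, 1% formaldehyde, 1 ug/ml Hoechst) and their nuclei counted on 4× images. Treatment had been applied by pin tool the day after seeding as one drug alone or as a fixed anchor-drug dose with five library-drug doses (not always all listed) in √10 steps. Relative viability is the nuclei count of treated wells divided by that of vehicle wells, and values are medians of duplicate plates.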

RO-3306 + OSI-027 = compound: C1=CC2=C(C=CC(=C2)C=C3C(=O)NC(=NCC4=CC=CS4)S3)N=C1 [RO-3306] + COc1cccc2cc(-c3nc([C@H]4CC[C@H](C(=O)O)CC4)n4ncnc(N)c34)[nH]c12 [OSI-027] (partner 0.5 µM)
Procedure, shortened: as §1

[1] = compound: O=S(=O)(c1ccccc1)N(CC(F)(F)F)c1ccc(C(O)(C(F)(F)F)C(F)(F)F)cc1 + CCNC(=O)c1noc(-c2cc(C(C)C)c(O)cc2O)c1-c1ccc(CN2CCOCC2)cc1 [Luminespib] (partner 0.01 µM)
Procedure, shortened: as §1

[2] = compound: O=S(=O)(c1ccccc1)N(CC(F)(F)F)c1ccc(C(O)(C(F)(F)F)C(F)(F)F)cc1 + C[C@@H](Oc1cc(-c2cnn(C3CCNCC3)c2)cnc1N)c1c(Cl)ccc(F)c1Cl [Crizotinib] (partner 1 µM)
Procedure, shortened: as §1

[3] = compound: O=S(=O)(c1ccccc1)N(CC(F)(F)F)c1ccc(C(O)(C(F)(F)F)C(F)(F)F)cc1 + C[C@]1(O)C[C@@H](c2nc(-c3ccc4ccc(-c5ccccc5)nc4c3)c3c(N)nccn32)C1 [Linsitinib] (partner 1 µM)
Procedure, shortened: as §1

Cell Line | relative viability (RO-3306 + Bortezomib; first compound 0.01 µM) | relative viability (RO-3306 + Bortezomib; first compound 0.03162 µM) | relative viability (RO-3306 + Bortezomib; first compound 0.1 µM) | relative viability (RO-3306 + Bortezomib; first compound 0.3162 µM) | relative viability (RO-3306 + Bortezomib; first compound 1 µM) | relative viability (RO-3306 + OSI-027; first compound 0.01 µM) | relative viability (RO-3306 + OSI-027; first compound 0.03162 µM) | relative viability (RO-3306 + OSI-027; first compound 0.1 µM) | relative viability (RO-3306 + OSI-027; first compound 0.3162 µM) | relative viability (RO-3306 + OSI-027; first compound 1 µM) | relative viability ([1]; first compound 0.8 µM) | relative viability ([1]; first compound 2.53 µM) | relative viability ([1]; first compound 8 µM) | relative viability ([2]; first compound 0.8 µM) | relative viability ([2]; first compound 2.53 µM) | relative viability ([2]; first compound 8 µM) | relative viability ([3]; first compound 0.8 µM) | relative viability ([3]; first compound 2.53 µM) | relative viability ([3]; first compound 8 µM)
NCI-H441 | 0.771 | 0.4 | 0.647 | 0.449 | 0.31 | 0.555 | 0.506 | 0.541 | 0.617 | 0.534 | 0.317 | 0.37 | 0.372 | 0.992 | 0.869 | 0.717 | 0.559 | 0.504 | 0.49
HCC-366 | 1.05 | 0.633 | 1.01 | 1.16 | 1.06 | 1.13 | 1.06 | 0.847 | 0.955 | 0.654 | – | – | – | 0.903 | 0.54 | 0.314 | 0.922 | 0.601 | 0.649
NCI-H2085 | 1.09 | 0.956 | 0.935 | 0.993 | 1.04 | 0.598 | 0.728 | 0.642 | 0.664 | 0.635 | 0.46 | 0.371 | 0.428 | 0.836 | 0.852 | 0.844 | 1.07 | 0.888 | 0.844
NCI-H1299 | 1.07 | 1.07 | 1.04 | 1.07 | 1.05 | – | – | – | – | – | – | – | – | 0.958 | 0.942 | 0.906 | 1.11 | 0.954 | 0.782
NCI-H2170 | – | – | – | – | – | 0.819 | 0.702 | 0.726 | 0.655 | 0.697 | 0.855 | 0.474 | 0.489 | 1.25 | 1.19 | 1.21 | – | – | –
NCI-H1395 | – | – | – | – | – | 0.598 | 0.674 | 0.502 | 0.618 | 0.612 | 0.75 | 0.701 | 0.714 | – | – | – | 1.23 | 1.05 | 1.21
NCI-H522 | – | – | – | – | – | 0.68 | 0.695 | 0.622 | 0.711 | 0.715 | 1.39 | 1.27 | 1.07 | – | – | – | – | – | –
HCC-78 | 0.433 | 0.362 | 0.511 | 0.572 | 0.543 | 0.324 | 0.401 | 0.384 | 0.404 | 0.329 | – | – | – | 0.375 | 0.285 | 0.334 | 0.45 | 0.426 | 0.444
ChaGo-K-1 | 1.01 | 0.935 | 0.656 | 0.756 | 0.673 | 0.59 | 0.365 | 0.455 | 0.474 | 0.341 | 0.573 | 0.719 | 0.706 | 1.31 | 1.07 | 0.613 | – | – | –
IA-LM | 0.86 | 0.8 | 0.745 | 0.6 | 0.969 | – | – | – | – | – | – | – | – | 0.863 | 0.652 | 0.906 | 0.656 | 0.34 | 0.397
EBC-1 | 0.616 | 0.5 | 0.501 | 0.529 | 0.572 | – | – | – | – | – | – | – | – | 0.234 | 0.29 | 0.293 | 0.911 | 0.47 | 0.695
LK-2 | – | – | – | – | – | 0.209 | – | 0.157 | 0.17 | 0.202 | 0.175 | 0.174 | 0.227 | 0.2 | 0.229 | 0.242 | 0.643 | 0.553 | 0.301
NCI-H1623 | – | – | – | – | – | 0.408 | 0.384 | 0.45 | 0.368 | 0.405 | 0.625 | 0.411 | 0.491 | – | – | – | – | – | –
SW 900 | – | – | – | – | – | 0.486 | 0.427 | 0.467 | 0.551 | 0.266 | 0.181 | 0.192 | 0.172 | – | – | – | – | – | –
Calu-6 | 1.07 | 1.06 | 1.05 | 0.995 | 1.01 | – | – | – | – | – | – | – | – | 0.7 | 0.668 | 0.649 | 0.908 | 0.826 | 0.926
A549 | – | – | – | – | – | – | – | – | – | – | – | – | – | 0.884 | 0.74 | 0.703 | 0.697 | 0.585 | 0.603
SK-MES-1 | – | – | – | – | – | 0.657 | 0.558 | 0.693 | 0.794 | 0.612 | 0.677 | 0.744 | 0.533 | 1.02 | 1 | 0.903 | 1.15 | 1.17 | 0.972
NCI-H1703 | 0.646 | 0.261 | 0.349 | 0.203 | 0.289 | – | – | – | – | – | – | – | – | 0.676 | 0.701 | 0.588 | 0.675 | 0.667 | 0.805
NCI-H1650 | 0.204 | 0.184 | 0.181 | 0.192 | 0.185 | 0.715 | 0.409 | 0.516 | 0.637 | 0.587 | 0.184 | 0.2 | 0.231 | 0.972 | 0.972 | 1.04 | – | – | –
NCI-H2342 | – | – | – | – | – | 0.664 | 0.559 | 0.616 | 0.575 | 0.596 | 0.809 | 0.782 | 0.628 | – | – | – | – | – | –
NCI-H1944 | – | – | – | – | – | 0.399 | 0.366 | 0.361 | 0.394 | 0.335 | 0.946 | 0.786 | 0.68 | 1.2 | 1.11 | 1.04 | 1.25 | 1.08 | 1.13
NCI-H358 | – | – | – | – | – | 0.587 | 0.658 | 0.79 | 0.741 | 0.59 | 0.195 | 0.332 | 0.352 | 0.606 | 0.515 | 0.512 | 0.598 | 0.521 | 0.578
NCI-H1648 | – | – | – | – | – | 0.247 | – | 0.289 | 0.249 | 0.241 | – | – | – | – | – | – | – | – | –
NCI-H1793 | – | – | – | – | – | 0.266 | 0.277 | 0.291 | 0.251 | 0.262 | 0.162 | 0.149 | 0.172 | – | – | – | 0.836 | 0.641 | 0.66
